Tests used:
[1] = test system: Human alphaherpesvirus 3; test: Antiviral activity against TK+ VZV OKA in HEL cells after 5 days; format: functional, organism-based; conditions: Human alphaherpesvirus 3, OKA, 120 h
[2] = test system: Human alphaherpesvirus 3; test: Antiviral activity against TK+ VZV YS in HEL cells after 5 days; format: functional, organism-based; conditions: Human alphaherpesvirus 3, YS, 120 h
[3] = test system: Human alphaherpesvirus 3; test: Antiviral activity against TK- VZV 07 in HEL cells after 5 days; format: functional, organism-based; conditions: Human alphaherpesvirus 3, 07, HEL, 120 h
[4] = Cytotoxicity against HEL cells assessed as alteration in cell morphology; format: cell-based; conditions: human
[5] = Cytotoxicity against HEL cells; format: cell-based; conditions: human
[6] = Inhibition of VZV-TK catalyzed dThd phosphorylation; design: species or system Human alphaherpesvirus 3
[7] = test system: Human alphaherpesvirus 3; test: Antiviral activity against TK- VZV YS in HEL cells after 5 days; format: functional, organism-based; conditions: Human alphaherpesvirus 3, YS, 120 h

Row | Structure (SMILES) | EC50 [1] [µM] | EC50 [2] [µM] | EC50 [3] [µM] | MCC [4] [µM] | CC50 [5] [µM] | IC50 [6] [µM] | EC50 [7] [µM]
1 | CCCCCc1ccc(-c2cc3cn([C@@H]4C[C@H](CO)[C@@H](O)C4)c(=O)nc3o2)cc1 | 0.49 | 0.28 | > 50 | > 50 | > 50 | 44 | –
2 | Nc1nc2c(ncn2COCCO)c(=O)[nH]1 [ACYCLOVIR] | – | – | – | > 200 | > 200 | – | –
3 | O=c1[nH]c(=O)n([C@H]2C[C@H](O)[C@@H](CO)O2)cc1/C=C/Br [BRIVUDINE] | 0.005 | 0.005 | > 200 | > 200 | > 200 | 1.3 | > 200
4 | CCCCCc1ccc(-c2cc3cn([C@H]4C[C@H](O)[C@@H](CO)O4)c(=O)nc3o2)cc1 [CF1743] | – | – | – | > 20 | – | – | –

From ChEMBL document CHEMBL1138364 (J Med Chem, 2007)
